Tests used:
[1] = system: NR2 antibodies; assay: NR2 antibody monitoring in three patients (minor CVA, TIA, ischemic stroke) given oral Trental; assay type: in vivo, human
Description: The first case was a non-smoker who had previously undergone valve replacement surgery in 1987 and had received a coronary artery stent in 2002. The patient had been treated with coumudin since the first surgery. NR2 antibodies measured at base line were […] the 2 ng/ml cutoff. (FIG. 1). […] At the same time, the patient had complaints on chronic fatigue and numbness in the 4th and 5th digits of their left arm lasting quite a long period of time. […] Antibodies continued to decrease up to 6th mo. after treatment was initiated and remained below the cut off level more than 1 year after therapy.
The second patient was a apparently healthy person. Their blood assay for NR2 antibodies was performed initially on a voluntary basis as a healthy control. […] The patient used Plavix and Lipitor on daily basis as well.
The third patient was an non-smoker who had suffered ischemic stroke on May 28-29, 2002 after angioplasty. They had receiving coumadin, eardizem, atenolol, hytrin, lasix, and guaifinex when they entered the study.

[2] = acute ischemic stroke; non-significant reduction; 95% CI: 0.41, 1.02; cited from earlier work
[3] = patients with TIA or minor CVA; cited from earlier work
[4] = system: NR2 antibodies; assay: Serial blood NR2 antibody levels over 24 months of aspirin treatment follow up in individuals with DM/AS at high risk for CVA; assay type: in vivo, human; details: for NR2 antibodies, 6 mo.: 6 months; for NR2 antibodies, 0 mo.: base level before treatment
Description: (§1) In this study, serial measurements of blood levels of NR2 antibodies in an out-patient setting in individuals with diabetes mellitus (DM) and atherosclerosis (AS) who are at high risk for subsequent CVA were evaluated to establish whether this biomarker can be used to monitor the efficacy of aspirin treatment. Every person who participated in the study underwent neurological examination and computed tomography (CT) of the brain. The age of the 33 persons (17 male/16 female) ranged from 47-64 yrs (mean 55.7 yrs). Patients with documented 5-10 year history of DM/AS and normal neurological examination without a previous history of neurological event such as transient ischemic attack (TIA), or prolonged reversible ischemic neurological deficit or stroke were observed. Based on laboratory and clinical testing, all participants were at borderline glucose intolerance, with blood glucose levels of 119 to 132 mg/dL, and had complaints on fatigue, low concentration of attention, and numbness in digits of left or right hand.
Out of 22 individuals, 10 (6 male/4 female) were randomly assigned to a placebo group and the rest used daily over-counter aspirin in a dose of 325 mg which formed group 1 (Table 3). None of people of group 1 developed the resistance to aspirin.
NR2 antibodies were detected at a base level for each group before treatment was initiated (0 mo.) and then each following 6 months for two years. […] A TIA event was documented in 1 patient from the placebo group. […] By the end of the study at 24 mo., two out of 9 persons suffered a TIA which developed into an acute ischemic stroke in one patient.

[5] = large meta-analysis, BMJ 1994; cited from earlier work
[6] = TIA rate over 24 months of aspirin treatment follow up in individuals with DM/AS; assay type: in vivo, human; details: 24 months follow up
Description: as §1
Out of 22 individuals, 10 (6 male/4 female) were randomly assigned to a placebo group and the rest used daily over-counter aspirin in a dose of 325 mg which formed group 1 (Table 3). […]
NR2 antibodies were detected at a base level for each group before treatment was initiated (0 mo.) and then each following 6 months for two years. […]

[7] = Group 1 (not aspirin-resistant, N=12), aspirin 325 mg daily
[8] = Group 2 (resistant to aspirin, N=9), aspirin 325 mg/day

Row | Structure (SMILES) | Effect on level of NR2 antibodies ([1]; person after TIA, oral 200 mg twice a day for 30 days, FIG. 2) | Effect on level of NR2 antibodies ([1]; person after ischemic stroke, oral 200 mg x 3 times a day for 60 days, FIG. 3) | Effect on level of NR2 antibodies ([1]; person, minor CVA, oral 200 mg twice a day for 30 days, FIG. 1) | Odds ratio of early death [2] | Reduction of the risk of TIA [3] [%] | NR2 antibodies, 6 mo. [4, 7] [ng/mL] | NR2 antibodies, 0 mo. [4, 7] [ng/mL] | Change of NR2 antibody levels ([4]; Group 1, aspirin 325 mg daily, below cut off of 2 ng/ml, no CVA consequences) | NR2 antibodies, 6 mo. [4, 8] [ng/mL] | NR2 antibodies, 0 mo. [4, 8] [ng/mL] | Change of NR2 antibody levels ([4]; Group 2, patients resistant to aspirin, any time during the study) | Reduction of incidence of stroke, myocardial infarction, or vascular death [5] [%] | TIA rate [6, 7] | TIA rate [6, 8]
1 | CC(=O)CCCCn1c(=O)c2c(ncn2C)n(C)c1=O [Trental, pentoxifylline] | reduced the level of NR2 antibodies to the control level of healthy individuals | reduced the level of NR2 antibodies to the cut off | reduced the level of NR2 antibodies by the end of treatment | 0.64 |  |  |  |  |  |  |  |  |  | 
2 | CC(=O)Oc1ccccc1C(=O)O [aspirin] |  |  |  |  | 20 | 2.51 ± 0.28 | 3.05 ± 0.21 | significantly reduced | 3.22 ± 0.30 | 2.87 ± 0.11 | no improvement in NR2 antibodies levels | 25 | 0 | 2/9
